Entries after “also recorded” stand apart in the source; their conditions may differ.
Assays:
[1] = test system: latent DHIV-GFP, X4 virus in nonpolarized T helper cells; experiment: Primary T-cell model of latency, ex vivo differentiated nonpolarized CD4+ T cells; format: cell-based, HIV-1; conditions: 96 h after compound addition; minor effect only at highest doses
[2] = test system: latent HIV-1 in Bcl-2-transduced resting CD4+ T cells; format: cell-based; conditions: 24-72 h, average of two donors
[3] = test system: HIV LTR promoter driving destabilized GFP in Jurkat cells; experiment: Single-cell time-lapse fluorescence microscopy of LTR-GFP Jurkat cells (two-state transcription model); format: cell-based
Description: Lentiviral vectors expressing the LTR-GFP cassette in the absence of Tat were used to infect 5×10^5 Jurkat cells at a multiplicity of infection <0.1, resulting in 25,000-50,000 infected cells each presumably with a unique integration site. Cells were then sorted by FACS to isolate green fluorescent protein-labeled (GFP^+) cells and fluorescently imaged on glass-bottom dishes in RPMI 1640 with 10% fetal calf serum and 1% penicillin-streptomycin and 1 μM JQ1 at t=0 h for the treated population. The imaging took place in humidified conditions at 37° C. and 5% CO2 for 12-24 hours with a 40× (1.2 NA) oil-immersion objective on a Zeiss Observer Z1 microscope equipped with an automated linear-encoded X-Y stage. Image processing and cell tracking were performed in Matlab™ with an in-house algorithm (Weinberger et al. Nature Genet 2008; 40:466-70) and a single 12-hour experiment could generate up to 1000 single-cell trajectories for analysis.
For each trajectory, noise autocorrelation (Φ(t)) and magnitude (CV2) were calculated using an established noise processing algorithm (Weinberger et al. Nature Genet 2008; 40:466-70; Austin D W et al., Nature 2006; 439:608-11) A published theory (Simpson M L, et al. J Theor Biol 2004; 229:383-94; Cox C D, et al. Proc Natl Acad Sci USA 2008; 105:10809-14) of the two-state transcriptional bursting model yields analytical expressions for the autocorrelation of the noise, Φ(τ), and noise magnitude. Derivations and calculated burst size and frequency have been reported (Singh A, et al. Biophysical Journal 2010; 98:L32-L4). Exogenous JQ1 addition can change either mean fluorescence, variability of expression (defined by the coefficient of variation, CV), or both. Modeling of 2-state transcription enables the differentiation between modulations in transcriptional initiation (Dkon) or in the burst size (DT/koff).
To biophysically characterize the Tat-independent JQ1 effect on the HIV LTR, single-cell time-lapse fluorescence microscopy was performed on ˜2,000 Jurkat cells where each cell carried a different integration site of the LTR promoter driving a destabilized GFP reporter (FIG. 24A). Mean fluorescence intensity (MFI) and the magnitude of intensity fluctuations (i.e. the ‘noise’) were quantified for sub-clusters of polyclonal cells in response to JQ1 treatment (FIG. 24). The data was analyzed using an established two-state model of episodic transcription in which the LTR switches between a transcriptional OFF state, where RNA polymerase II is stalled, and a transcriptional ON state where elongation occurs and multiple mRNA transcripts are produced at a rate=T (FIG. 24B). In this model, promoter switching occurs with rates kon and koff which generates pulses or bursts of transcription.
To determine how JQ1 influences these biophysical parameters (koff, kon, T), changes in LTR MFI and noise (measured by the coefficient of variation, CV, which is defined as the standard deviation over the mean) were examined and compared to the untreated LTR (FIG. 24C, D). By qualifying MFI and CV in time-lapse trajectories, changes in both burst frequency (kon) and burst size, or the # of mRNA produced per activity pulse, (T/koff) can be determined.

[4] = test system: latent LTR-GFP construct in J-Lat A72 cells; experiment: J-Lat A72 cells (LTR-GFP lacking Tat), flow cytometry of GFP; format: cell-based, HIV-1
Description: HEK293T and Jurkat cells were obtained from the American Type Culture Collection. J-Lat (clones A2 and A72) cell lines were described. HEK293T cells were cultured in DMEM supplemented with 10% FBS, 1% L-glutamine and 1% penicillin-streptomycin (Life Technologies). Jurkat and J-Lat cells were cultured in RPMI supplemented with 10% FBS, 1% L-glutamine, and 1% penicillin-streptomycin. TNFα (Sigma-Aldrich) was used at concentrations of 0.25 or 1 ng/ml. Human αCD3 and αCD28 (BD Biosciences) were used at concentrations of 3 and 1 μg/ml, respectively. Prostratin (Sigma) was used at a suboptimal concentration of 0.5 μM, and SAHA (NCI Chemical Carcinogen Repository, Midwest Research Institute) was used at 2.5 μM.
To determine if BET inhibition specifically activates Tat-dependent transcription, a J-Lat cell line was utilized that harbored a latent lentiviral construct expressing Tat with GFP from the HIV LTR (clone A2; LTR-Tat-IRES-GFP). […] Stimulation with JQ1 yielded up to ninefold more GFP-expressing cells than control-treated cells, and a 22-fold increase was observed when cells were co-treated with JQ1 and low doses of TNFα (FIG. 21A). […] Here, an up to 22-fold increase in GFP^+ cells resulted from JQ1 treatment alone and a 45-fold increase when TNFα was added with JQ1 (FIG. 21B). Both cell lines were also treated with prostratin and SAHA (FIG. 27).
Two latent J-Lat cell lines A2 (containing a LTR-Tat-IRES-GFP construct) or A72 (containing a LTR-GFP construct) were treated with JQ1 or (R)-JQ1 in combination with TNFα or control at the indicated concentrations for 18 h, followed by flow cytometry analysis. […] Data represent average (±SD) of three independent experiments. All treatments in (A) and (B) on the X axis are in μM.

## Cc1sc2c(c1C)C(c1ccc(Cl)cc1)=N[C@@H](CC(=O)OC(C)(C)C)c1nnc(C)n1-2 [JQ1, tert-Butyl 2-((6S)-4-(4-chlorophenyl)-2,3,9-trimethyl-6H-thieno[3,2-f][1,2,4]triazolo[4,3-a][1,4]diazepin-6-yl)acetate]
[1]
  reversal of latency (GFP): minor activatory effect
[2]
  reactivation of latent HIV-1 relative to costimulation with αCD3 and αCD28 antibodies: ~14%
[3]; 1 μM JQ1, average
  delay in transcriptional initiation: ~50 min
  increase of mRNAs per pulse of transcriptional activity: ~15 mRNAs per pulse
[3]; 1 μM JQ1 vs untreated
  LTR noise (coefficient of variation): increases
  average dwell time in the OFF state (1/kon): increases
  mean fluorescence intensity (MFI): without a significant shift
  transcription burst size (T/koff): enhancement; also recorded: increases
[4]; 18 h
  activation of HIV transcription (GFP): increased GFP expression; also recorded: reactivated HIV-1 in a dose-dependent manner
[4]; FIG. 27
  effect of adding SAHA to JQ1: only a very modest increase
  effect of adding prostratin to JQ1: enhanced the JQ1 effect
[4]; JQ1 alone
  increase in GFP+ cells: up to 22 fold
[4]; TNFα added with JQ1
  increase in GFP+ cells: 45 fold
